{
  "source": "patent US20130053435A1",
  "about": "“Methods of Treating Alcohol Intoxication, Alcohol Use Disorders and Alcohol Abuse Which Comprises the Administration of Dihydromyricetin” (priority 2011, published 2013)",
  "key": {"[1]": {"test_system": "GABAAR α4 subunit", "assay": "Cell-surface biotinylation and Western blot in cultured hippocampal neurons", "assay_type": "cell-based, rat", "details": "24 hr", "protocol": "Western blots of the cultured neurons were performed and examined as described herein. Biotinylation assays for GABAARs of the cultured neurons were performed as described previously. See Chung W O, et al. (2000) Infect Immun 68(12):6758-6762. Briefly, the neurons in culture dishes were placed on ice and washed twice with ice cold PBS. Then the neurons were incubated for 30 min on ice with PBS containing 1 mg/ml sulfo-NHS-LC-biotin (ProteoChem). After quenching the biotin-reaction with Tris-buffered saline (TBS), neurons were lysed in 150 μl of modified RIPA-buffer (20 mM Tris-HCl (pH 7.5), 150 mM NaCl, 1 mM Na2 EDTA, 1 mM EGTA, 1% NP-40, 1% sodium deoxycholate, 2.5 mM sodium pyrophosphate, 1 mM b-glycerophosphate, 1 mM Na3VO4, and 1 μg/ml leupeptin). The homogenates were centrifuged for 15 min (14,000×g, 4° C.). An aliquot (10%) of the supernatant was removed to measure β-actin. The remaining supernatant was incubated with 60 μl of 50% neutravidin agarose (Pierce Chemical Company) for 4 hr at 4° C. and washed four times with lysis buffer. Agarose-bound proteins were taken up in 20 μl of SDS sample buffer and boiled. Western blots were performed as mentioned above.\nThe surface expression of α4 subunit in cultured neurons was measured using cell-surface biotinylation followed by Western blot analysis."}, "[2]": {"assay": "Plasma [EtOH] assay", "assay_type": "in vivo, rat", "details": "two-bottle choice, E+D/water group, end of the fourth week", "protocol": "See Liang (2007). The rat was put into a restraint tube and its tail was warm in about 40° C. The tail vein at the tip of the rail was punched with a sharp blade. Approximately 0.2 ml venous blood was dropped to a capillary blood collection tube containing lithium heparin (Ram Scientific Inc. Yonkers, N.Y.). Blood samples were centrifuged at 2500 rpm for 15 min. The supernatant was collected and stored at −80° C. until assay. The EtOH content of each blood sample was measured in duplicate along with EtOH standards using the alcohol oxidase reaction procedures (GM7 Micro-Stat; Analox Instruments, Lunenberg, Mass.)."}},
  "data": [
    {"smiles": "O=C1c2c(O)cc(O)cc2O[C@H](c2cc(O)c(O)c(O)c2)[C@H]1O", "note": "[DHM, (2R,3R)-3,5,7-trihydroxy-2-(3,4,5-trihydroxyphenyl)-2,3-dihydrochromen-4-one]", "values": [
      {"measurement": "α4 surface expression", "setting": "[1]; neurons treated with DHM", "result": "125.0±27.3 % of control"},
      {"measurement": "α4 subunit surface expression", "setting": "[1]; neurons treated with EtOH+DHM", "result": "123.0±8.4 % of control"},
      {"measurement": "plasma [EtOH] vs. E/water group", "setting": "[2]", "result": "significantly lower"}
    ]}
  ]
}
